Patent US20070155832A1, “Use of sulfonamide compounds for the treatment of diabetes and/or obesity” (priority 2003, published 2007)
pIC50: −log10 of the molar value.

Columns and labels:
Format in all cases: biochemical
ACAT [1] = experiment: ACAT inhibition in rat liver microsomes
Source text: (§1) The ability of compounds to inhibit ACAT can be measured using an in-vitro test described in Field & Salone (1982) Biochemica et Biophysica, 712, 557-570. The test assesses the ability of a test compound to inhibit the acylation of cholesterol by oleic acid by measuring the amount of radiolabeled cholesterol oleate formed from radiolabeled oleic acid in a tissue preparation containing rat liver microsomes.
(§2) The inhibitory activity of sulfamic acid [[2,4,6-tris(1-methylethyl)phenyl]acetyl-2,6-bis(1-methylethyl)phenyl ester against DGAT1, DGAT2 and ACAT was measured in rat and human liver microsomes. DGAT1 and DGAT2 can be distinguished since DGAT2 is not active at high magnesium concentrations (concentrations of 50 mM or higher) whilst DGAT1 retains its activity at high magnesium concentrations.

DGAT1 [2] = target: T1, DGAT1 (Homo sapiens, UniProt O75907); experiment: DGAT1 inhibition at 100 mM Mg in human liver microsomes
T1 construct: from tissue; host or cells: human liver microsomes
T1 sequence (O75907 1-488): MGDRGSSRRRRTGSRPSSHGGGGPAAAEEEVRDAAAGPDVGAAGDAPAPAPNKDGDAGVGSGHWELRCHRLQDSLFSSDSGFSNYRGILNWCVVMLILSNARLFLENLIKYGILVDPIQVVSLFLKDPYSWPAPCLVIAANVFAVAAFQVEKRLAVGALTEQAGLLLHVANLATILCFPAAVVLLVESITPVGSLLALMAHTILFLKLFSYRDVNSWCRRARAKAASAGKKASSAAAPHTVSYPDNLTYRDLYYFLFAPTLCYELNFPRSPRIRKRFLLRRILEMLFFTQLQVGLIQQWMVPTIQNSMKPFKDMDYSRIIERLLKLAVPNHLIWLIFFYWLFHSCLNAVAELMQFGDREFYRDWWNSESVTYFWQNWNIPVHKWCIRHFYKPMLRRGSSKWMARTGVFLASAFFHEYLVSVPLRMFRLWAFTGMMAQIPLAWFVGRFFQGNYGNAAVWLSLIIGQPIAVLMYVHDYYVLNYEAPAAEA
Procedure: (§3) The ability of compounds to inhibit DGAT can be measured as described in Coleman (1992) Methods in Enzymology 209, 98-102.
as §2
(§4) The results obtained, expressed as the concentration of inhibitor at which 50% of the enzyme activity is inhibited, i.e. the IC50, are as follows: […]

DGAT1 and DGAT2 [3] = experiment: DGAT inhibition (DGAT1 and DGAT2) in rat liver microsomes
Procedure: as §3, §2, §4

ACAT [4] = experiment: ACAT inhibition in human liver microsomes
Source text: as §1, §2

DGAT1 and DGAT2 [5] = experiment: DGAT inhibition (DGAT1 and DGAT2) in human liver microsomes
Procedure: as §3, §2, §4

DGAT1 [6] = target: T2, DGAT1 (Rattus norvegicus, UniProt Q9ERM3); experiment: DGAT1 inhibition at 100 mM Mg in rat liver microsomes
T2 construct: from tissue; host or cells: rat liver microsomes
T2 sequence (Q9ERM3 1-498): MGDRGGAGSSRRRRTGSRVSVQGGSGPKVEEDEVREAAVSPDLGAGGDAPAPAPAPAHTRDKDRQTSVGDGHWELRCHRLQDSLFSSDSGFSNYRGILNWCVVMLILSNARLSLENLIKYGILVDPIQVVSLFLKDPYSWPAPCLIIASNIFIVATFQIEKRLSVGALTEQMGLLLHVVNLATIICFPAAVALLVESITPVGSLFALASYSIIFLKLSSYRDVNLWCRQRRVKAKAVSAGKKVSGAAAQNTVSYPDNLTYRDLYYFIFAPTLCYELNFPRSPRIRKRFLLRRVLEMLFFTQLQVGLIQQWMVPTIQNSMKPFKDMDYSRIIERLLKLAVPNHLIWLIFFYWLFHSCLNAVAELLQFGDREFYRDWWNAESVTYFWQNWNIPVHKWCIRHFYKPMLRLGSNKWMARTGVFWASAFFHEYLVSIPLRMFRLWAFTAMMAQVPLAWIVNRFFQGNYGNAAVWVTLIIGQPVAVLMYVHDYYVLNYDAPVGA
Procedure: as §3, §2, §4

pIC50 (ACAT [1]): 5.99
pIC50 (DGAT1 [2]): 5.52
pIC50 (DGAT1 and DGAT2 [3]): 5.47
pIC50 (ACAT [4]): 5.25
pIC50 (DGAT1 and DGAT2 [5]): 5.10
pIC50 (DGAT1 [6]): 5.64
Structure (SMILES): CC(C)c1cc(C(C)C)c(CC(=O)NS(=O)(=O)Oc2c(C(C)C)cccc2C(C)C)c(C(C)C)c1 [sulfamic acid [[2,4,6-tris(1-methylethyl)phenyl]acetyl-2,6-bis(1-methylethyl)phenyl ester]
